Source: patent publication US20210251237A1, “PLATFORM FOR DEVELOPING SOIL-BORNE PLANT PATHOGEN INHIBITING MICROBIAL CONSORTIA” (priority 2018, published 2021)
“Also recorded” adds a separate entry of the source. Read-outs that look alike come from different tables or passages of the source.

Experiments:
[1] = tested on: Pythium ultimum var. sporangiferum; test: Pathogen suppressive activity plate assay (zone of inhibition); format: cell-based
Fusarium virguliforme = test: as above; format: cell-based; details: Table 4
[2] = tested on: Wheat, alfalfa, corn, and soybean plants; test: Plant growth promotion, greenhouse (FIG. 27); format: in vivo; details: plant biomass
Method: (§1) Wheat, alfalfa, corn, and soybean plants were evaluated for the growth response to microbial inoculants in growth chamber and greenhouse conditions. For each crop, containers (6.5 cm diameter x 25 cm long) were filled with steamed (sterile) greenhouse soil mix (500 ml) and planted with two (corn, soy, wheat) or three (alfalfa) seeds. Crop varieties were: SOY: AG 0832; CORN: Viking, WHEAT: Prosper, ALFALFA: Saranac. Seeds were inoculated with microbial isolates from the enriched microbial library immediately after planting (2 ml of water agar containing the inoculant per seed, 1×10^11 cells inoculant/ml). Control plants were allowed to grow without the microbial inoculants Plants were grown in the greenhouse and harvested at 3 weeks (corn), 4 weeks (wheat), 4.5 weeks (soybean) and 5 weeks (alfalfa). At harvest, the roots were carefully washed, and above- and belowground fresh weights were recorded (g). Plants were subsequently placed in paper bags and maintained in the 95° F. drying oven for 3 days, after which dry weights were also recorded. Plant weights were compared between inoculated and non-inoculated treatments.
(§2) For each crop (wheat, alfalfa, soybean, corn), a container (6.5 cm dia×25 cm long; approximately 500 cc of soil) was filled with steamed (sterile) greenhouse soil mix and planted with two of each seed (corn, soy, wheat) or three seeds (alfalfa) at a 0.5 inch depth. Crop varieties were: SOY: AG 0832; CORN: Viking, WHEAT: Prosper, ALFALFA: Saranac. Wheat, soybean and corn seeds (but not alfalfa) were surface sterilized before planting. Seeds were not treated with any fungicides or other chemicals. All crops were thinned to one seed per container following emergence. Ten replicate containers were planted for each inoculant and for the non-inoculated control.
(§3) Streptomyces cultures GS1 and PS1 were grown for 7-10 days on plates containing oatmeal agar (OA), and collected in 20% glycerol stocks. Stocks were serially diluted and plated on water agar (WA) for quantification. Stocks were then diluted to approximately 1×10^11 colony-forming units per ml.
(§4) For each inoculant, 2 ml of stock was distributed over the seeds at planting. Seeds and containers were watered when needed. Plants were incubated in the greenhouse and harvested at 3 weeks (corn), 4 weeks (wheat), 4.5 weeks (soybean) and 5 weeks (alfalfa). No additional nitrogen was added. At harvest for each crop, the roots were carefully washed, and above- and belowground fresh weights were recorded (g). Plants were subsequently placed in paper bags and maintained in the 95° F. drying oven for 3 days, after which dry weights were also recorded. Plant weights were compared between inoculated and non-inoculated treatments.

soybean = test: Plant growth promotion, greenhouse (FIG. 27); format: in vivo
Method: as §1, §2, §3, §4

corn = test: Plant growth promotion, greenhouse (FIG. 27); format: in vivo
Method: as §1, §2, §3, §4

wheat = test: Plant growth promotion, greenhouse (FIG. 27); format: in vivo
Method: as §1, §2, §3, §4

alfalfa = test: Plant growth promotion, greenhouse (FIG. 27); format: in vivo
Method: as §1, §2, §3, §4

Phytophthora sojae [3] = test: Pathogen suppressive activity plate assay (zone of inhibition); format: cell-based
potato scab = test: Potato field trials: percent scab control; format: in vivo; set-up: concentration or dose not given beside the values
F. culmorum = test: Pathogen suppressive activity plate assay (zone of inhibition); format: cell-based; details: Table 1; pathogen isolate P61
Sclerotinia sclerotiorum = test: as above; format: cell-based; details: for mean inhibitory zone size: Table 4
Rhizoctonia solani = test: as above; format: cell-based; details: for mean inhibitory zone size: Table 4
Phytophthora medicaginis [4] = test: as above; format: cell-based; details: for zone of inhibition: Table 1; for mean inhibitory zone size: Table 4
Fusarium graminearum = format: cell-based; details: for zone of inhibition: Table 1; for mean inhibitory zone size: Table 4
Fusarium oxysporum = test: Pathogen suppressive activity plate assay (zone of inhibition); format: cell-based; details: for zone of inhibition: Table 1; for mean inhibitory zone size: Table 4
Phytophthora sojae [5] = test: Phytophthora sojae control on soybean, growth chamber; format: in vivo; details: growth chamber trials
[6] = tested on: clinical antimicrobials (antibiotic discs); test: Antibiotic disc resistance/susceptibility assay of microbial isolates; format: cell-based
Phytophthora medicaginis [7] = test: Phytophthora medicaginis control on alfalfa, greenhouse; format: in vivo; details: field soil naturally infested, 28 days, inoculated vs non-inoculated
Source text: FIG. 7A-B. Inoculant included in this figure: GS1. FIG. 7A depicts the severity of disease on […]. The present figure was constructed utilizing methods from Example 9(F)(iii). […] Briefly, soils were inoculated with a liquid spore suspension of a single Streptomyces isolate at planting. Alfalfa seeds were planted into field soil that was naturally-infested with the pathogen Phytophthora medicaginis. After 28 days, plants were harvested for disease and biomass assessments.
Inoculum was prepared as described above, and used to inoculate seeds planted in field soil placed in sterile tins. Inoculation occurred immediately after planting. […] GS1 was thus shown to promote plant growth.

Streptomyces lydicus [GS1]
zone of inhibition ([1]; Table 1, pathogen isolate P58): 9.95 mm | mean inhibitory zone size ([1]; Table 4, pathogen target isolate P58): 9.95 mm | mean inhibitory zone size (Fusarium virguliforme; pathogen target isolate P20): 0 mm | mean inhibitory zone size (Fusarium virguliforme; pathogen target isolate P21): 1.3 mm | mean inhibitory zone size (Fusarium virguliforme; pathogen target isolate P22): 0 mm | mean inhibitory zone size (Fusarium virguliforme; pathogen target isolate P23): 0 mm | promotion of growth of inoculated vs non-inoculated plants [2]: statistically significant effect | dry weight (soybean): significant increases | fresh and dry weights (corn): not | fresh and dry weights (wheat): not | fresh and dry weights (alfalfa): significant enhancements | growth promotion (alfalfa; FIG. 27): promote the growth | inhibition of pathogen (in words) (Phytophthora sojae [3]; P52 isolate of Phytophthora sojae): does not | zone of inhibition (Phytophthora sojae [3]; Table 1, pathogen isolate P52): 0 mm | mean inhibitory zone size (Phytophthora sojae [3]; Table 4, pathogen target isolate P52): 0 mm | Percent Control (reduction in scab severity vs non-inoculated plots) (potato scab; experiment BPP, disease on non-inoculated tubers 22.2): 33% | Percent Control (reduction in scab severity vs non-inoculated plots) (potato scab; experiment BSCR, disease on non-inoculated tubers 16.2): 35% | Percent Control (reduction in scab severity vs non-inoculated plots) (potato scab; experiment BSP, disease on non-inoculated tubers 24.3): 42% | Percent Control (reduction in scab severity vs non-inoculated plots) (potato scab; experiment BWP, disease on non-inoculated tubers 26.7): 38% | Percent Control (reduction in scab severity vs non-inoculated plots) (potato scab; experiment RPP, disease on non-inoculated tubers 15.6): 37% | Percent Control (reduction in scab severity vs non-inoculated plots) (potato scab; experiment RSP, disease on non-inoculated tubers 8.8): 39% | zone of inhibition (F. culmorum): 4.68 mm | zone of inhibition (Sclerotinia sclerotiorum; Table 1, pathogen isolate P19): 8.63 mm | mean inhibitory zone size (Sclerotinia sclerotiorum; pathogen target isolate P17): 16.8 mm | mean inhibitory zone size (Sclerotinia sclerotiorum; pathogen target isolate P18): 12.8 mm | mean inhibitory zone size (Sclerotinia sclerotiorum; pathogen target isolate P19): 8.63 mm | inhibition of pathogen (in words) (Rhizoctonia solani; P6 isolate of Rhizoctonia solani): inhibits | zone of inhibition (Rhizoctonia solani; Table 1, pathogen isolate P6): 9.15 mm | mean inhibitory zone size (Rhizoctonia solani; pathogen target isolate P5): 8.95 mm | mean inhibitory zone size (Rhizoctonia solani; pathogen target isolate P6): 9.15 mm | mean inhibitory zone size (Rhizoctonia solani; pathogen target isolate P12): 9.78 mm | zone of inhibition (Phytophthora medicaginis [4]; pathogen isolate P43): 4.53 mm | zone of inhibition (Phytophthora medicaginis [4]; pathogen isolate P44): 10.45 mm | mean inhibitory zone size (Phytophthora medicaginis [4]; pathogen target isolate P43): 4.53 mm | mean inhibitory zone size (Phytophthora medicaginis [4]; pathogen target isolate P44): 10.45 mm | zone of inhibition (Fusarium graminearum; pathogen isolate P31): 8.63 mm | zone of inhibition (Fusarium graminearum; pathogen isolate P34): 16.28 mm | mean inhibitory zone size (Fusarium graminearum; pathogen target isolate P30): 14.58 mm | mean inhibitory zone size (Fusarium graminearum; pathogen target isolate P31): 8.63 mm | mean inhibitory zone size (Fusarium graminearum; pathogen target isolate P32): 11.5 mm | mean inhibitory zone size (Fusarium graminearum; pathogen target isolate P33): 13.13 mm | mean inhibitory zone size (Fusarium graminearum; pathogen target isolate P34): 16.28 mm | mean inhibitory zone size (Fusarium graminearum; pathogen target isolate P35): 11.03 mm | zone of inhibition (Fusarium oxysporum; pathogen isolate P27): 0 mm | zone of inhibition (Fusarium oxysporum; pathogen isolate P29): 0 mm | mean inhibitory zone size (Fusarium oxysporum; pathogen target isolate P25): 2.15 mm | mean inhibitory zone size (Fusarium oxysporum; pathogen target isolate P26): 9.38 mm | mean inhibitory zone size (Fusarium oxysporum; pathogen target isolate P28): 0 mm | mean inhibitory zone size (Fusarium oxysporum; pathogen target isolate P29): 0 mm | reduction of disease severity (Phytophthora sojae [5]; soil infested with P. sojae): 93% | percent healthy plants (Phytophthora sojae [5]; FIG. 7A): increased | Antibiotic resistance characteristics ([6]; Amoxicillin Clavulanate): R (R-resistant (0 inhibition zone)) | Antibiotic resistance characteristics ([6]; Chloramphenicol): R (R-resistant (0 inhibition zone)) | Antibiotic resistance characteristics ([6]; Erythromycin): S (S-susceptible (>10 mm)) | Antibiotic resistance characteristics ([6]; Kanamycin): S (S-susceptible (>10 mm)) | Antibiotic resistance characteristics ([6]; Novobiocin 5): MS (MS-moderately susceptible (6-10 mm)) | Antibiotic resistance characteristics ([6]; Novobiocin 30): MS (MS-moderately susceptible (6-10 mm)) | Antibiotic resistance characteristics ([6]; Penicillin): R (R-resistant (0 inhibition zone)) | Antibiotic resistance characteristics ([6]; Rifampin): R (R-resistant (0 inhibition zone)) | Antibiotic resistance characteristics ([6]; Streptomycin): S (S-susceptible (>10 mm)) | Antibiotic resistance characteristics ([6]; Tetracycline): R (R-resistant (0 inhibition zone)) | Antibiotic resistance characteristics ([6]; Vancomycin 5): MS (MS-moderately susceptible (6-10 mm)) | Antibiotic resistance characteristics ([6]; Vancomycin 30): MS (MS-moderately susceptible (6-10 mm)) | disease (Phytophthora medicaginis [7]): significantly reduced; also recorded: reduced disease | plant biomass (Phytophthora medicaginis [7]): significantly increased; also recorded: significant increases
